Results on one cell line are retold here after the supplement of paper PMC10307832.

Experiment in all cases: relative viability (nuclei count vs DMSO), 5 days (fraction); higher = more cells survive
Compound in the experiment “AZ505 + Navitoclax”: C1CCC(CC1)N(CCNCCC2=C3C(=C(C=C2)O)NC(=O)CO3)C(=O)CCNCCC4=CC(=C(C=C4)Cl)Cl [AZ505] + CC1(C)CCC(c2ccc(Cl)cc2)=C(CN2CCN(c3ccc(C(=O)NS(=O)(=O)c4ccc(N[C@H](CCN5CCOCC5)CSc5ccccc5)c(S(=O)(=O)C(F)(F)F)c4)cc3)CC2)C1 [Navitoclax] (partner 0.5 µM)
The method, boiled down: (§1)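 Five library-drug doses in √10 steps were combined with a fixed anchor-drug dose, or a single drug was given alone, by pin tool to lung cancer cell lines in 1536-well plates the day after seeding. Nuclei were stained and counted after 5 days. Relative viability is the nuclei count in treated wells over that in vehicle wells, taken as the median of duplicate plates.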

Compound in the experiment “AZ505 + Olaparib”: C1CCC(CC1)N(CCNCCC2=C3C(=C(C=C2)O)NC(=O)CO3)C(=O)CCNCCC4=CC(=C(C=C4)Cl)Cl [AZ505] + O=C(c1cc(Cc2n[nH]c(=O)c3ccccc23)ccc1F)N1CCN(C(=O)C2CC2)CC1 [Olaparib] (partner 8 µM)
The method, boiled down:
as §1

Compound in the experiment “Dactolisib + Dasatinib”: Cn1c(=O)n(-c2ccc(C(C)(C)C#N)cc2)c2c3cc(-c4cnc5ccccc5c4)ccc3ncc21 [Dactolisib] + Cc1nc(Nc2ncc(C(=O)Nc3c(C)cccc3Cl)s2)cc(N2CCN(CCO)CC2)n1 [Dasatinib] (partner 0.075 µM)
The method, boiled down: as §1

Compound in the experiment “AZ505 + Pictilisib”: C1CCC(CC1)N(CCNCCC2=C3C(=C(C=C2)O)NC(=O)CO3)C(=O)CCNCCC4=CC(=C(C=C4)Cl)Cl [AZ505] + CS(=O)(=O)N1CCN(Cc2cc3nc(-c4cccc5[nH]ncc45)nc(N4CCOCC4)c3s2)CC1 [Pictilisib] (partner 1 µM)
The method, boiled down:
as §1

In the case of UMC-11, the relative viability with AZ505 + Navitoclax (first compound 0.08 µM) came to 0.26; with AZ505 + Navitoclax (first compound 0.253 µM) it was 0.295; with AZ505 + Navitoclax (first compound 0.8 µM), 0.327; in the experiment with AZ505 + Navitoclax (first compound 2.53 µM), 0.334; in the experiment with AZ505 + Navitoclax (first compound 8 µM), 0.373; in the experiment with AZ505 + Olaparib (first compound 0.08 µM), 0.366. Also, the relative viability with AZ505 + Olaparib (first compound 0.253 µM) is 0.372; with AZ505 + Olaparib (first compound 0.8 µM), 0.363; with AZ505 + Olaparib (first compound 2.53 µM), 0.383; in the experiment with AZ505 + Olaparib (first compound 8 µM), 0.381; with Dactolisib + Dasatinib (first compound 0.002 µM) it was 0.496; with Dactolisib + Dasatinib (first compound 0.006325 µM) it was 0.419. Also, the relative viability with Dactolisib + Dasatinib (first compound 0.02 µM) is 0.37; with Dactolisib + Dasatinib (first compound 0.06325 µM), 0.253; in the experiment with Dactolisib + Dasatinib (first compound 0.2 µM) it was 0.219; in the experiment with AZ505 + Pictilisib (first compound 0.08 µM) it was 0.753; with AZ505 + Pictilisib (first compound 0.253 µM), 0.766; with AZ505 + Pictilisib (first compound 0.8 µM), 0.688. The relative viability worked out at 0.972 with AZ505 + Pictilisib (first compound 2.53 µM) and 0.974 with AZ505 + Pictilisib (first compound 8 µM).
